Test results from patent publication US9802941B2, “Compounds and methods for inhibiting histone demethylases” (Gilead Sciences, Inc., priority 2014, dated 2017).
Read-outs that look alike come from different tables or passages of the source.

What was measured:
Assay type in all cases: biochemical
[1] = target: T1, KDM4C (JMJD2C) (Homo sapiens, UniProt Q9H3R0); assay: Histone lysine demethylase AlphaLISA assay, KDM4C
T1 construct: KDM4C; BRIC, Denmark; 1-349; E. coli; host or cells: E. coli
T1 sequence (Q9H3R0 1-349): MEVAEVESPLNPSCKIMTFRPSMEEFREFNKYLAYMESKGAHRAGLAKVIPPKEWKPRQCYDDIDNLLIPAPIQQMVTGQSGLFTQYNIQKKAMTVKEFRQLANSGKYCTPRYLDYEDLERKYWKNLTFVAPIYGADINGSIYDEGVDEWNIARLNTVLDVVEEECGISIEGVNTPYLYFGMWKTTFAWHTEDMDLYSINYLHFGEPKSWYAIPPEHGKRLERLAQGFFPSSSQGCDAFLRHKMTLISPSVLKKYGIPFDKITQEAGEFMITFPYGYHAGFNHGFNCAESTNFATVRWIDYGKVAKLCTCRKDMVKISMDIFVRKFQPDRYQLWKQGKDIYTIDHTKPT
Procedure, shortened: (§1)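 Steps: enzyme in Hepes buffer with 5 μM Fe(II) and 0.1% BSA; add to DMSO compound; incubate 10 minutes; add substrate, incubate at RT; add acceptor beads, then streptavidin donor beads; incubate in dark; read AlphaLISA.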

[2] = target: T2, PHF8 (KDM7) (Homo sapiens, UniProt Q9UPP1); assay: Histone lysine demethylase AlphaLISA assay, PHF8
T2 construct: KDM7 (PHF8); BRIC; 1-1322; Bac
Procedure, shortened: as §1

[3] = target: T3, KDM2B (FBXL10) (Homo sapiens, UniProt Q8NHM5); assay: Histone lysine demethylase AlphaLISA assay, KDM2B; details: AlphaLISA, in vitro; read-out: HDME Inhibition KDM2B
T3 construct: KDM2B; BPS,; 1-650; Bac; purchased BPS Bioscience, US; host or cells: baculovirus system
T3 sequence (Q8NHM5 1-650): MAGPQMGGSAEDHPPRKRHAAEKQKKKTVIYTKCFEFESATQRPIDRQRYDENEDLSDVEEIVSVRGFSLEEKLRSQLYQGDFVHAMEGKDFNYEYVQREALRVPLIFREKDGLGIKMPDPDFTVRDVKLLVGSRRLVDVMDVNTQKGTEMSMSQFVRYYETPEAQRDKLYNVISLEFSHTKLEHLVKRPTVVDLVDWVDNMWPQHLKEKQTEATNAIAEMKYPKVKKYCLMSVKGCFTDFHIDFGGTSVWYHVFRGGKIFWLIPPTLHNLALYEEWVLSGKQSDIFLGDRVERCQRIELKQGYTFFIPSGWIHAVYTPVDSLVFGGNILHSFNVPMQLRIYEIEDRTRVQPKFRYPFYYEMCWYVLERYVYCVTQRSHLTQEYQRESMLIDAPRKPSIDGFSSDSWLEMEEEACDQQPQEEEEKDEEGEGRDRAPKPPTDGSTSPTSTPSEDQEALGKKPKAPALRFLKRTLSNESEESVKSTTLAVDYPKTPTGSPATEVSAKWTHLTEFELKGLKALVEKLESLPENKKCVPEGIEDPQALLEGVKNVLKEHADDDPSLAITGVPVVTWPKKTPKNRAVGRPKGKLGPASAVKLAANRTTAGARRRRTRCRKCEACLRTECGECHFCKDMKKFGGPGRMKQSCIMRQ
Procedure, shortened: as §1

[4] = target: T4, KDM6A (UTX) (Homo sapiens, UniProt O15550); assay: Histone lysine demethylase AlphaLISA assay, KDM6A
T4 construct: KDM6A (UTX); BRIC; 919-1401; E. coli; host or cells: E. coli
Method: The compounds of the application, or a pharmaceutically acceptable salt, or solvate, or prodrug thereof, are tested in an in vitro AlphaLISA assay. Enzymes are dissolved in enzyme buffer and incubated before they are added to DMSO solutions of compounds of the application, or a pharmaceutically acceptable salt, or solvate, or prodrug thereof, in enzyme buffer. The reaction mixture is then incubated for an additional period of time before substrate solution is added and then the resulting mixture again incubated. Acceptor beads and suspended Epigenetic Buffer from stock are added and the suspension is again incubated before a suspension of streptavidin donor beads in Epigenetic Buffer is added. After an additional period of incubation, the plates are read.
The ability of compounds of the application to inhibit the histone lysine demethylase activity in vitro of different enzymes was determined.
The reaction mixture was incubated for another 10 minutes before 5 μL of substrate solution was added and the resulting mixture was then incubated at room temperature. […] After incubation at room temperature in the dark, the plates were read.
Enzyme Buffer: 50 mM Hepes (pH 7.4-8.0), 0.003-0.01% Tween-20, 0.1% BSA; 5 μM (NH4)2Fe(SO4)2.

[5] = target: T5, KDM5B (PLU-1) (Homo sapiens, UniProt Q9UGL1); assay: Histone lysine demethylase AlphaLISA assay, KDM5B
T5 construct: BRIC; 1-809; E. coli; host or cells: E. coli
T5 sequence (Q9UGL1 1-809): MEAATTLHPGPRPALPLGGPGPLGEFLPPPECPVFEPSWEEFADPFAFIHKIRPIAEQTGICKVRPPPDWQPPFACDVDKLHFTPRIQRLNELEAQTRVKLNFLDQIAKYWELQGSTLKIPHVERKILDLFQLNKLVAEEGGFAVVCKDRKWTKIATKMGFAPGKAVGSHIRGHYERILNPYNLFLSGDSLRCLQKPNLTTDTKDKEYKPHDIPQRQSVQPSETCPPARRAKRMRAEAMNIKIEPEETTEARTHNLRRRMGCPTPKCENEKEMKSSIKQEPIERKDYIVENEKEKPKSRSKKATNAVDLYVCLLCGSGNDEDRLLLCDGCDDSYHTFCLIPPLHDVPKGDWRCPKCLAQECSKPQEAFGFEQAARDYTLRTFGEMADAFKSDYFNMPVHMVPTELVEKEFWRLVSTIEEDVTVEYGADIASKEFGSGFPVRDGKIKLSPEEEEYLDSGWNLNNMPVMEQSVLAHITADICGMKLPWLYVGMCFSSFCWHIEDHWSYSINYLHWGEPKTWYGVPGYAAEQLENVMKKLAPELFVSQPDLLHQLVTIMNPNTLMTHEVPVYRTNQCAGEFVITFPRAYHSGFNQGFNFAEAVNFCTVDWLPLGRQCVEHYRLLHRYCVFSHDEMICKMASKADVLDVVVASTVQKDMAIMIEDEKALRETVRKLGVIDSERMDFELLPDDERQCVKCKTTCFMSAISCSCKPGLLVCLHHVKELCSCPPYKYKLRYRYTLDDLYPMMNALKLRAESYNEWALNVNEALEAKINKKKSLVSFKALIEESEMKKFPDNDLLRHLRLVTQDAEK
Procedure, shortened: as §1

[6] = AlphaLISA assay, read-out: HDME Inhibition KDM4C (IC50)
[7] = AlphaLISA, in vitro, read-out: HDME Inhibition KDM4C
[8] = AlphaLISA, in vitro, read-out: HDME Inhibition PHF8
[9] = AlphaLISA assay, read-out: HDME Inhibition KDM6A (IC50)
[10] = AlphaLISA, in vitro, read-out: HDME Inhibition KDM6A
[11] = AlphaLISA assay, read-out: HDME Inhibition KDM5B (IC50)
[12] = AlphaLISA, in vitro, read-out: HDME Inhibition KDM5B
[13] = AlphaLISA assay, read-out: HDME Inhibition PHF8 (IC50)

T4 sequence (O15550 919-1401): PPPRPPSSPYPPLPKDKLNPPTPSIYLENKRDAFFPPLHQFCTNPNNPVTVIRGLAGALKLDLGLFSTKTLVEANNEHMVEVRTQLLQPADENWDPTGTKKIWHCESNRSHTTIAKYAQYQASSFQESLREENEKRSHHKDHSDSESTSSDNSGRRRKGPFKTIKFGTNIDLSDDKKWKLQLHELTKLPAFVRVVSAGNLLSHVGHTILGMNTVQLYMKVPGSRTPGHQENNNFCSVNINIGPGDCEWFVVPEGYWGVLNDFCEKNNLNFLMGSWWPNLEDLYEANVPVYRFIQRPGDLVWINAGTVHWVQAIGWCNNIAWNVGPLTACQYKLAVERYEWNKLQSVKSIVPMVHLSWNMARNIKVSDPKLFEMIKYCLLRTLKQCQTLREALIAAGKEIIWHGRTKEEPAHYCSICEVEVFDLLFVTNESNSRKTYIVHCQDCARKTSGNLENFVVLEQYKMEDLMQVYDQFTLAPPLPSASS
T2 sequence (Q9UPP1 37-440 limits assumed): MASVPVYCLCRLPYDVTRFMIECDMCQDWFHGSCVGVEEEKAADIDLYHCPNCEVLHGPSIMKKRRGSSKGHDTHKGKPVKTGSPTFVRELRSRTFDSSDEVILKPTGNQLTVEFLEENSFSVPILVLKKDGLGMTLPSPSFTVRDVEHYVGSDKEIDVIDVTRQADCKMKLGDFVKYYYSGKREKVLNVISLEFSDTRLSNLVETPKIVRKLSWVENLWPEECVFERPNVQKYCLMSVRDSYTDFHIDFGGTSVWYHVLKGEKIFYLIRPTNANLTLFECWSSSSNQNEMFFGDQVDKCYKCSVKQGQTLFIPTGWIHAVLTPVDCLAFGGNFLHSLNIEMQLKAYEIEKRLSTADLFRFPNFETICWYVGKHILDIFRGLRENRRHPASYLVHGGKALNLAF

Row | IC50 [1, 6] [µM] | IC50 [1, 7] [µM] | IC50 [2, 8] [µM] | IC50 [3] [µM] | IC50 [4, 9] [µM] | IC50 [4, 10] [µM] | IC50 [5, 11] [µM] | IC50 [5, 12] [µM] | IC50 [2, 13] [µM] | IC50 [5] [µM] | Structure (SMILES)
1 | > 10 | > 10 | 0.472 | 0.155 | > 10 | > 10 | > 10 | > 10 |  |  | Cc1cc(C(=O)O)cc(CNCc2ncc(C3CCC3)n2Cc2ccc(F)cc2)n1 [Compound 39, 2-{[({5-cyclobutyl-1-[(4-fluorophenyl)methyl]-1H-imidazol-2-yl}methyl)amino]methyl}-6-methyl pyridine-4-carboxylic acid]
2 | > 10 | > 10 | 1.06 | 0.462 | > 10 | > 10 | > 10 | > 10 |  |  | Cc1cc(C(=O)O)cc(CNCc2ncc(CCc3ccccc3)n2Cc2ccc(F)cc2)n1 [Compound 28, 2-{[({1-[(4-fluorophenyl)methyl]-5-(2-phenylethyl)-1H-imidazol-2-yl}methyl)amino]methyl}-6-methylpyridine-4-carboxylic acid]
3 | > 10 | > 10 | 0.489 | 0.297 | > 10 | > 10 | > 10 | > 10 |  |  | Cc1cc(C(=O)O)cc(CNCc2nnc(C)n2Cc2ccc(F)cc2)n1 [Compound 37, 2-{[({4-[(4-Fluorophenyl)methyl]-5-methyl-4H-1,2,4-triazol-3-yl}methyl)amino]methyl}-6-methylpyridine-4-carboxylic acid]
4 | > 10 | > 10 | > 10 | 2.94 | > 10 | > 10 | > 10 | > 10 | > 10 |  | COCc1cc(C(=O)O)cc(CNCc2nccn2Cc2ccc(F)cc2)n1 [Compound 2, 2-{[({1-[(4-fluorophenyl)methyl]-1H-imidazol-2-yl}methyl)amino]methyl}-6-(methoxymethyl)pyridine-4-carboxylic acid]
5 | > 10 | > 10 | 0.352 | 0.431 | > 10 | > 10 | > 10 | > 10 |  |  | Cc1cc(C(=O)O)cc(CNCc2nccn2Cc2ccc(F)cc2)n1 [Compound 1, 2-{[({1-[(4-fluorophenyl)methyl]-1H-imidazol-2-yl}methyl)amino]methyl}-6-methylpyridine-4-carboxylic acid]
6 | > 10 | > 10 | > 10 | 2.29 | > 10 | > 10 |  |  | > 10 | 4.62 | Cc1cc(C(=O)O)cc(CNCc2nnc(C3CC3)n2Cc2ccc(F)cc2)n1 [Compound 38, 2-{[({5-cyclopropyl-4-[(4-fluorophenyl)methyl]-4H-1,2,4-triazol-3-yl}methyl)amino]methyl}-6-methylpyridine-4-carboxylic acid]
7 | > 10 | > 10 | 1.21 | 1.13 | > 10 | > 10 | > 10 | > 10 |  |  | Cc1cc(C(=O)O)cc(CNCc2nc3c(n2Cc2ccc(F)cc2)CCC3)n1 [Compound 25, 2-{[({1-[(4-fluorophenyl)methyl]-1H,4H,5H,6H-cyclopenta[d]imidazol-2-yl}methyl)amino]methyl}-6-methylpyridine-4-carboxylic acid]
8 | > 10 | > 10 | 6.93 | 1.54 | > 10 | > 10 |  | 5.48 |  |  | Cc1cc(C(=O)O)cc(CNCCc2ncccc2Br)n1 [Compound 11, 2-({[2-(3-bromopyridin-2-yl)ethyl]amino}methyl)-6-methylpyridine-4-carboxylic acid]
9 | > 10 | > 10 | > 10 | 7.1 | > 10 | > 10 |  | 1.23 | > 10 |  | Cc1cc(C(=O)O)cc(CN[C@H]2CCc3cccnc32)n1 [Compound 7, 2-({[(7S)-5H,6H,7H-cyclopenta[b]pyridin-7-yl]amino}methyl)-6-methylpyridine-4-carboxylic acid]
10 | > 10 | > 10 | 5.78 | 2.27 | > 10 | > 10 | > 10 | > 10 |  |  | CCc1cc(C(=O)O)cc(CNCc2nccn2Cc2ccc(F)cc2)n1 [Compound 13, 2-ethyl-6-{[({1-[(4-fluorophenyl)methyl]-1H-imidazol-2-yl}methyl)amino]methyl}pyridine-4-carboxylic acid]
11 | > 10 | > 10 | 0.908 | 0.248 | > 10 | > 10 | > 10 | > 10 |  |  | CSc1nnc(CNCc2cc(C(=O)O)cc(C)n2)n1Cc1ccc(F)cc1 [Compound 36, 2-{[({4-[(4-fluorophenyl)methyl]-5-(methylsulfanyl)-4H-1,2,4-triazol-3-yl}methyl)amino]methyl}-6-methylpyridine-4-carboxylic acid]
12 | > 10 | > 10 | 5.6 | 3.23 | > 10 | > 10 | > 10 | > 10 |  |  | CCCCCCc1cccnc1CCNCc1cc(C(=O)O)cc(C)n1 [Compound 14, 2-({[2-(3-hexylpyridin-2-yl)ethyl]amino}methyl)-6-methylpyridine-4-carboxylic acid]
